Assay results reported in PMC11984924, “Dipeptidic Phosphonates: Potent Inhibitors of Pseudomonas aeruginosa Elastase B Showing Efficacy in a Murine Keratitis Model” (Advanced Science, 2025).

Experiments:
cyclooxygenase 1 (COX1) = target: T1, cyclooxygenase 1 (COX1) (Homo sapiens, UniProt P23219); assay: SafetyScreen44: COX1; format: biochemical
T1 construct: Eurofins Cerep SA (CRO)
Text: Moreover, we explored the safety profile of frontrunner (R)‐30 in more detail in order to detect additional crucial off‐target interactions. For this purpose, we employed the SafetyScreen44 in vitro panel comprising selected binding, inhibition and uptake assays.^[ [35] ^] The panel is a specialized pharmacological profiling tool that tests compounds against 44 key molecular targets, aiming to identify potential safety risks early in drug discovery. […]
The off-target Safety Screen44TM was performed by the CRO Eurofins Cerep SA (Celle-
L'Evescault, France) according to their protocols.[13] […]
MMP-1 MMP-2 MMP-3 TACE (ADAM17)
Compound [% inhibition at [% inhibition at [% inhibition at [% inhibition at 100

[1] = (R)-30 levels in serum of keratitis mice; format: in vivo; details: C57BL/6, mouse, 5 µL of 1 mg/mL (R)-30 per dose (nine doses, every 8 h), keratitis mice after topical ocular dosing
Protocol: 3.15 Bioanalytical sample preparation of keratitis samples for determination of
concentration of ( R)-30 in eye and serum
All PD serum and eye homogenate samples were analyzed via HPLC -MS/MS using an Agilent
1290 Infinity II HPLC system and coupled to an AB Sciex QTrap6500+ mass spectrometer.
First, a calibration curve was prepared by spiking different concentrations of (R)-30 into the
respective matrix (mouse serum (pooled, from CD -1 mice) for plasma samples, isotonic
sodium chloride solution for eye homogenate samples). Caffeine was used as an internal
standard. In addition, quality control samples (QCs) were prepared for (R)-30 with the
respective matrix. The following extraction procedure was used: 7.5 μL of a serum sample
(calibration samples, QCs or PD samples) was extracted with 37.5 μL of methanol containing
12.5 ng/mL of caffeine as internal standard for 5 min at 2,000 r pm on an Eppendorf MixMate®
vortex mixer. Then samples (serum) were spun down at 13,000 rpm for 5 min. Supernatants
were transferred to standard HPLC-glass vials. 50 μL of an eye homogenate sample […]
standard were analyzed using MultiQuant 3.0 software (AB Sciex). […]
for quantification are marked with a ‘Q’ in the table, the other MS/MS pairs for the respective
compound were used for qualification. Peaks of PD samples were quantified using the
calibration curve. The accuracy of the calibration curve was determined using QC s […]

[2] = Stability in mouse liver microsomes; format: in vitro ADME; details: read-out: Mouse Liver Microsomes t1/2
Protocol: (§1) Samples were stored on ice until the end of the incubation and precipitated protein was removed by centrifugation (15 min, 4 °C, 4,000 g). Concentration of the remaining test […]
(§2) compound at the different time points was analyzed by HPLC-MS/MS (TSQ Quantum Access […]
(§3) MAX, Thermo Fisher, Dreieich, Germany) and used to determine half -life (t1/2) and intrinsic […]
(§4) Species profiling was conducted as above using 0.5 mg/mL pooled mouse, rat or minipig liver microsomes (Xenotech, Kansas City, USA) with 2 mM NADPH and 10 mM MgCl2 and testosterone, verapamil and ketoconazole as reference compounds. […]
(§5) Thermo Fisher, Dreieich, Germany) and used to determine half-life (t1/2).
(§6) Table S2: Additional in vitro ADMET data for selected dipeptides. n.d.: not determined.
(§7) Kinetic Liver S9 Clint [µL/mg/min] Plasma t1/2 [min] LogD7.4 […]
(§8) pH 7.4 [µM] Mouse Human Mouse Human

[3] = Stability in minipig liver microsomes; format: in vitro ADME; details: Göttingen, read-out: Minipig Liver Microsomes t1/2
Protocol: as §1, §2, §3, §4, §5, §6, §7, §8

[4] = Plasma stability, Wistar rat; format: in vitro ADME; details: read-out: Rat Plasma t1/2
Protocol: To determine stability in plasma, the compound (1 µM) was incubated with pooled CD -1 […]
mouse/human/Wistar rat or Göttingen minipig plasma (Neo Biotech, Nanterre, France).
Samples were taken by mixing aliquots with 4 volumes of acetonitrile containing internal […]
standard (125 nM diphenhydramine). The plasma stability of procain, propantheline and diltiazem were determined in parallel to confirm the enzymatic activity. Samples were stored […]
on ice until the end of the incubation and precipitated protein was removed by centrifugation […]
(15 min, 4 °C, 4,000 g, two centrifugation steps). Concentration of the remaining test compound at the different time points was analyzed by HPLC-MS/MS (TSQ Quantum Access MAX, […]
as §5, §6, §7, §8

zebrafish embryos = assay: Zebrafish embryo toxicity; format: in vivo; details: up to 100 µM, up to five days post fertilization
Protocol: Table S8: Percent (%) inhibition of the metabolic activity of three human cell lines HepG2 (hepatocellular carcinoma cells), HEK293 (human embryonic kidney 293 cells) and A549 (lung carcinoma epithelial cells). Results are means and SD of at least two independent ex periments.
3.10 Evaluation of Zebrafish embryo toxicity
The experiment was performed according to a procedure described in the literature with minor modifications using zebrafish embryos of the AB wild -type line at 1 day post fertilization (dpf). A detailed protocol has been given in our recent publication.[16]
Starting exposure ar 2 dpf. Ten larvae were tested for each condition. Dpf: days post fertilization.
3.11 Tolerability study in male CD1 mice
This in vivo experiment was carried out at the CRO Selvita (Zagreb, Croatia). The study was performed in an AAALAC I- approved Facility. The standard study plan relating to this study was reviewed by the Ethics Committee (CARE- Zagreb) as required by International Laws/Regulations and Croatian Low on Animal Welfare (“The Animal Protection Act”, Official Gazette, NN 135/06 and NN 37/13) and Animal Welfare Officer. Animals were kept in solid […]
bottom cages ([…] S.p A., Italy, Type III polysulphone cage); 425 mm x 266 mm x 180 mm; 3 animals in each cage. The animals were kept on 4 cm thick layer of corn cob grit, […]
(1 picture or pasted object on this page, not shown here)

T1 sequence (P23219 24-599): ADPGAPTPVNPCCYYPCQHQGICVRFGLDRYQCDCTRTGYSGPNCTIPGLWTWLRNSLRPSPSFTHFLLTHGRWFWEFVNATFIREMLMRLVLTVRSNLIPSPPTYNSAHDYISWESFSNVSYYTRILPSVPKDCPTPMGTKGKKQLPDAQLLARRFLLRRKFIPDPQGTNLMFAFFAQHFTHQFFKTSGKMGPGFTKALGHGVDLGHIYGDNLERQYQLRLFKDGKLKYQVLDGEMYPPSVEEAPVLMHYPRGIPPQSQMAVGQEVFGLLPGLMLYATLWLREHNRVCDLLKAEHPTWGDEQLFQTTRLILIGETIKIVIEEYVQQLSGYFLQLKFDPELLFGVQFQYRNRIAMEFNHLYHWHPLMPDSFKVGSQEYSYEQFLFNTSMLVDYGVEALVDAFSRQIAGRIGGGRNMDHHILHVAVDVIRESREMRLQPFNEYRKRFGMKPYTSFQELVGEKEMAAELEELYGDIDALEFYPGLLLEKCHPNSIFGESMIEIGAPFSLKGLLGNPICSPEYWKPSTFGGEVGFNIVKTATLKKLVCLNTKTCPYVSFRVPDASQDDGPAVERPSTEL

Structure (SMILES)	inhibition at 100 µM (cyclooxygenase 1 (COX1))	concentration at 3 days post infection [1]	half-life at 1 µM [2]	half-life at 1 µM [3]	half-life at 1 µM [4]	Zebrafish embryo toxicity (zebrafish embryos)
CC(=O)c1ccc(NC(=O)[C@@H](NC(=O)[C@@H](CC(C)C)P(=O)(O)O)C(C)C)cc1 [(R)‐30]	81.5%	< 500 nM	–	–	–	–
CC(=O)c1ccc(NC(=O)[C@@H](NC(=O)C(CC(C)C)P(=O)(O)O)C(C)C)cc1 (stereo partly drawn) [compound 30]	–	–	> 2 h	> 2 h	> 4 h	no signs of toxicity
